Reference: ChEMBL document CHEMBL1201862, “PubChem BioAssay data set” (2004)
Structures can show the parent of a compound that is named as a salt.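 Step 1: Grow cells in 96-well plates. Step 2: Expose to compound for 48 hours at 5 concentrations. Step 3: Interpolate endpoints linearly; if unreached, use highest concentration. GI50 marks 50% less growth.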 Active and inactive are the calls of the source. No stated cut-off is given here; in the data, active = GI50 up to about 1.1 µM and inactive = higher.

How the values were obtained:
Assay in all cases: DTP human tumour cell line panel, 48 h
SK-MEL-5 = tested on: SK-MEL-5
OVCAR-8 = tested on: OVCAR-8
XF498 = tested on: XF498
UACC-62 = tested on: UACC-62
DU-145 = tested on: DU-145
OVCAR-3 = tested on: OVCAR-3
SK-MEL-28 = tested on: SK-MEL-28
SK-OV-3 = tested on: SK-OV-3
HCT-15 = tested on: HCT-15
SF-295 = tested on: SF-295
PC-3 = tested on: PC-3
KM12 = tested on: KM12
Hs-578T = tested on: Hs-578T
SNB-75 = tested on: SNB-75
A498 = tested on: A498
EKVX = tested on: EKVX
DMS-114 = tested on: DMS-114
MDA-MB-231 = tested on: MDA-MB-231
NCI/ADR-RES = tested on: NCI/ADR-RES
U-251 = tested on: U-251
HOP-92 = tested on: HOP-92
SN12C = tested on: SN12C
T47D = tested on: T47D
SK-MEL-2 = tested on: SK-MEL-2
LOX IMVI = tested on: LOX IMVI
HOP-18 = tested on: HOP-18
HT-29 = tested on: HT-29
MDA-MB-435 = tested on: MDA-MB-435
CCRF-CEM = tested on: CCRF-CEM
SF-268 = tested on: SF-268
Malme-3M = tested on: Malme-3M
M14 = tested on: M14
UACC-257 = tested on: UACC-257
MCF7 = tested on: MCF7
UO-31 = tested on: UO-31
SNB-19 = tested on: SNB-19
KM-20L2 = tested on: KM-20L2
A549 = tested on: A549
COLO 205 = tested on: COLO 205
NCI-H460 = tested on: NCI-H460
HCC 2998 = tested on: HCC 2998
K562 = tested on: K562
IGROV-1 = tested on: IGROV-1
BT-549 = tested on: BT-549
SW-620 = tested on: SW-620
NCI-H23 = tested on: NCI-H23
786-0 = tested on: 786-0
DLD-1 = tested on: DLD-1
SF-539 = tested on: SF-539
TK-10 = tested on: TK-10
M19-MEL = tested on: M19-MEL
CAKI-1 = tested on: CAKI-1
SR = tested on: SR
OVCAR-5 = tested on: OVCAR-5
NCI-H226 = tested on: NCI-H226
HL-60 = tested on: HL-60
RXF 631 = tested on: RXF 631
SNB-78 = tested on: SNB-78
RXF 393 = tested on: RXF 393
MOLT-4 = tested on: MOLT-4
HOP-62 = tested on: HOP-62
MDA-N = tested on: MDA-N
ACHN = tested on: ACHN
LXFL 529 = tested on: LXFL 529
OVCAR-4 = tested on: OVCAR-4
RPMI-8226 = tested on: RPMI-8226
DMS-273 = tested on: DMS-273
NCI-H522 = tested on: NCI-H522
HCT-116 = tested on: HCT-116

CC(=O)N(O)CCCCCNC(=O)CCC(=O)N(O)CCCCCNC(=O)CCC(=O)N(O)CCCCCN [DEFEROXAMINE HYDROCHLORIDE]
GI50 (SK-MEL-5): 21.7 µM (inactive) | GI50 (OVCAR-8): 38.4 µM (inactive) | GI50 (XF498): > 100 µM (inactive) | GI50 (UACC-62): 31.6 µM (inactive) | GI50 (DU-145): 13.6 µM (inactive) | GI50 (OVCAR-3): 20.9 µM (inactive) | GI50 (SK-MEL-28): 37.9 µM (inactive) | GI50 (SK-OV-3): 38.2 µM (inactive) | GI50 (HCT-15): 16.8 µM | GI50 (SF-295): 7.38 µM (inactive) | GI50 (PC-3): > 73.6 µM (inactive) | GI50 (KM12): 26.7 µM (inactive) | GI50 (Hs-578T): > 100 µM (inactive) | GI50 (SNB-75): > 100 µM (inactive) | GI50 (A498): > 80.4 µM (inactive) | GI50 (EKVX): 29 µM (inactive) | GI50 (DMS-114): 43.4 µM (inactive) | GI50 (MDA-MB-231): > 100 µM (inactive) | GI50 (NCI/ADR-RES): > 72.3 µM (inactive) | GI50 (U-251): 20.6 µM (inactive) | GI50 (HOP-92): > 100 µM (inactive) | GI50 (SN12C): 25.9 µM (inactive) | GI50 (T47D): > 100 µM (inactive) | GI50 (SK-MEL-2): > 92.7 µM (inactive) | GI50 (LOX IMVI): 13.5 µM (inactive) | GI50 (HOP-18): 12.7 µM (inactive) | GI50 (HT-29): 36.6 µM (inactive) | GI50 (MDA-MB-435): > 78.5 µM (inactive) | GI50 (CCRF-CEM): 4.48 µM (inactive) | GI50 (SF-268): 24.9 µM (inactive) | GI50 (Malme-3M): 55.1 µM (inactive) | GI50 (M14): 19 µM (inactive) | GI50 (UACC-257): 50.4 µM (inactive) | GI50 (MCF7): 37.9 µM (inactive) | GI50 (UO-31): 24.5 µM (inactive) | GI50 (SNB-19): 51.6 µM (inactive) | GI50 (KM-20L2): 17.8 µM (inactive) | GI50 (A549): 14.5 µM (inactive) | GI50 (COLO 205): 34.7 µM (inactive) | GI50 (NCI-H460): 6.53 µM (inactive) | GI50 (HCC 2998): 55.7 µM (inactive) | GI50 (K562): 57.5 µM (inactive) | GI50 (IGROV-1): 65.6 µM (inactive) | GI50 (BT-549): 57.5 µM (inactive) | GI50 (SW-620): 29.1 µM (inactive) | GI50 (NCI-H23): 63.5 µM (inactive) | GI50 (786-0): 13.3 µM (inactive) | GI50 (DLD-1): 45.3 µM (inactive) | GI50 (SF-539): 30.1 µM (inactive) | GI50 (TK-10): 42 µM (inactive) | GI50 (M19-MEL): 43.8 µM (inactive) | GI50 (CAKI-1): 42.4 µM (inactive) | GI50 (SR): 8.87 µM (inactive) | GI50 (OVCAR-5): 12.5 µM (inactive) | GI50 (NCI-H226): 26.9 µM (inactive) | GI50 (HL-60): 31 µM (inactive) | GI50 (RXF 631): 26.9 µM (inactive) | GI50 (SNB-78): > 100 µM (inactive) | GI50 (RXF 393): 57.4 µM (inactive) | GI50 (MOLT-4): 11.2 µM (inactive) | GI50 (HOP-62): 18.4 µM (inactive) | GI50 (MDA-N): 53.2 µM (inactive) | GI50 (ACHN): 12.5 µM (inactive) | GI50 (LXFL 529): 36.4 µM (inactive) | GI50 (OVCAR-4): 21.7 µM (inactive) | GI50 (RPMI-8226): 62.5 µM (inactive) | GI50 (DMS-273): 28.2 µM (inactive) | GI50 (NCI-H522): 41.9 µM (inactive) | GI50 (HCT-116): 14 µM (inactive)
